Experimental data published in patent US12275731B2, “Azaindole inhibitors of wild-type and mutant forms of LRRK2” (DANA-FARBER CANCER INSTITUTE, INC., priority 2018, dated 2025).

Tests used:
Assay in all cases: KinomeScan profiling
Format in all cases: binding
PIK3C2B = PIK3C2B (Homo sapiens, UniProt O00750); details: read-out: % control
How it was run: (§1)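 At 1 μM in DMSO, compounds are run through a broad 468-member kinase panel. The luminescent read-out is normalised so that vehicle gives 100% and a positive control gives 0%; any kinase falling below 35% is treated as a target.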

PAK6 = PAK6 (Homo sapiens, UniProt Q9NQU5); details: PAK6, 1 μM; read-out: % control
How it was run: as §1

MYO3B = biological target: T1, MYO3B (Homo sapiens, UniProt Q8WXR4); details: read-out: % control
T1 sequence (Q8WXR4 1-1341): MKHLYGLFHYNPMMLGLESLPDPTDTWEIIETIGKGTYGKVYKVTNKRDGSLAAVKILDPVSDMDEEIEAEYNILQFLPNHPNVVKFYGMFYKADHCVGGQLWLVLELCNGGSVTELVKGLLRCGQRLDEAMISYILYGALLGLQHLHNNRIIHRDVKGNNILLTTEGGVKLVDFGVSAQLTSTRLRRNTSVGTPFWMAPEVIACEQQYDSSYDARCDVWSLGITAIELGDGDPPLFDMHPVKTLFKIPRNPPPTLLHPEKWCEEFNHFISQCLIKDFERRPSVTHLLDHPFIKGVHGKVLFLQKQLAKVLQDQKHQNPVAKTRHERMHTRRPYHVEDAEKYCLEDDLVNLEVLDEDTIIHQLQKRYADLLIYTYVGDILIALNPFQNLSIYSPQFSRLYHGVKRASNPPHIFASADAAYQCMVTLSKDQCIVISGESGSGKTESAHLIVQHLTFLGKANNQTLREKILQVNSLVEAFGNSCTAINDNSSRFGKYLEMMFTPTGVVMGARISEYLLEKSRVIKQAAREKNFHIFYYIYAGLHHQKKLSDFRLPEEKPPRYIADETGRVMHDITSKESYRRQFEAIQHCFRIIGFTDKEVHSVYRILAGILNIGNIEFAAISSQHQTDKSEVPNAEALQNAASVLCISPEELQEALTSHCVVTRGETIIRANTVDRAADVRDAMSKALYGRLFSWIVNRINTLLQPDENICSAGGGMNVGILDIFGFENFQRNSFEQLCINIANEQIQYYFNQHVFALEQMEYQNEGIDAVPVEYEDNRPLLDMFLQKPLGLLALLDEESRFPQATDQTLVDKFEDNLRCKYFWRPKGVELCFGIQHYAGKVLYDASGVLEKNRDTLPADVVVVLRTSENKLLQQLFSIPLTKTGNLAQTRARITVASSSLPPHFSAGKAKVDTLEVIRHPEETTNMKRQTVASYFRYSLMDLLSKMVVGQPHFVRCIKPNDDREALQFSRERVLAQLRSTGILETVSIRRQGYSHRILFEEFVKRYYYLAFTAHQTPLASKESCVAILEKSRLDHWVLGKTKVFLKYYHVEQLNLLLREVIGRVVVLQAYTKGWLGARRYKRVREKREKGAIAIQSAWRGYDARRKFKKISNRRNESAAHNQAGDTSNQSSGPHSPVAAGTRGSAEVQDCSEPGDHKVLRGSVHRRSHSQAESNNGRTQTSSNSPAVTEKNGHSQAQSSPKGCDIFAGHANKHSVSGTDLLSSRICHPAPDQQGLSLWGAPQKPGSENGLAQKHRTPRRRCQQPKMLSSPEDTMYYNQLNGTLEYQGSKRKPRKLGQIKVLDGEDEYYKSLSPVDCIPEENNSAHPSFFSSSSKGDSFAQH
How it was run: as §1

p38-alpha = p38-alpha (Homo sapiens, UniProt Q16539); details: read-out: % control
How it was run: as §1

MUSK = biological target: T2, MUSK (Homo sapiens, UniProt O15146); details: read-out: % control
T2 sequence (O15146 24-869): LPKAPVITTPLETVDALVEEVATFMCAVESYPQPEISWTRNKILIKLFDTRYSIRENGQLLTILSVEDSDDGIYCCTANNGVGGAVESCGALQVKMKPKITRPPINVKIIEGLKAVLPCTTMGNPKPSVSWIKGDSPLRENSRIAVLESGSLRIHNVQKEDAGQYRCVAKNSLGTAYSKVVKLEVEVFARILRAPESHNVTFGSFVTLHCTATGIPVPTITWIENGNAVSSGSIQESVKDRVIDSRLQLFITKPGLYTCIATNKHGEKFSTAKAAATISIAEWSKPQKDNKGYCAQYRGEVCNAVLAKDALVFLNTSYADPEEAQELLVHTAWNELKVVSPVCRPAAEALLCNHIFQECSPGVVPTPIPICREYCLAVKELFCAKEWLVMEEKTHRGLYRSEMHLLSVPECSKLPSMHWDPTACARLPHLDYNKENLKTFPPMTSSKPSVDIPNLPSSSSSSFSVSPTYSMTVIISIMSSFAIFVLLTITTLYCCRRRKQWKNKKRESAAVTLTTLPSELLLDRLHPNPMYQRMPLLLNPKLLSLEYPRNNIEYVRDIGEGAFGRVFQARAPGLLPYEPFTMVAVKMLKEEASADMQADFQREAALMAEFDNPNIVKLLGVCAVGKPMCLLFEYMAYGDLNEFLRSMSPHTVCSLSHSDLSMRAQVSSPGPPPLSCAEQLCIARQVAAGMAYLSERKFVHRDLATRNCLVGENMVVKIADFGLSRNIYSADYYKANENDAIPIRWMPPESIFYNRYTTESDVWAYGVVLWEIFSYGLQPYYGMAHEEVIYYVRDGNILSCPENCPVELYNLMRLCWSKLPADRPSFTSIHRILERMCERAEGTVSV
How it was run: as §1

[1] = biological target: T3, RSK2(Kin.Dom.1-N-terminal) (Homo sapiens, UniProt P51812); details: read-out: % control
T3 construct: RSK2(Kin.Dom.1-N-terminal)
How it was run: as §1

[2] = biological target: T4, RSK2(Kin.Dom.2-C-terminal) (Homo sapiens, UniProt P51812); details: read-out: % control
T4 construct: RSK2(Kin.Dom.2-C-terminal)
How it was run: as §1

Chain of PAK6 (Q9NQU5 whole entry): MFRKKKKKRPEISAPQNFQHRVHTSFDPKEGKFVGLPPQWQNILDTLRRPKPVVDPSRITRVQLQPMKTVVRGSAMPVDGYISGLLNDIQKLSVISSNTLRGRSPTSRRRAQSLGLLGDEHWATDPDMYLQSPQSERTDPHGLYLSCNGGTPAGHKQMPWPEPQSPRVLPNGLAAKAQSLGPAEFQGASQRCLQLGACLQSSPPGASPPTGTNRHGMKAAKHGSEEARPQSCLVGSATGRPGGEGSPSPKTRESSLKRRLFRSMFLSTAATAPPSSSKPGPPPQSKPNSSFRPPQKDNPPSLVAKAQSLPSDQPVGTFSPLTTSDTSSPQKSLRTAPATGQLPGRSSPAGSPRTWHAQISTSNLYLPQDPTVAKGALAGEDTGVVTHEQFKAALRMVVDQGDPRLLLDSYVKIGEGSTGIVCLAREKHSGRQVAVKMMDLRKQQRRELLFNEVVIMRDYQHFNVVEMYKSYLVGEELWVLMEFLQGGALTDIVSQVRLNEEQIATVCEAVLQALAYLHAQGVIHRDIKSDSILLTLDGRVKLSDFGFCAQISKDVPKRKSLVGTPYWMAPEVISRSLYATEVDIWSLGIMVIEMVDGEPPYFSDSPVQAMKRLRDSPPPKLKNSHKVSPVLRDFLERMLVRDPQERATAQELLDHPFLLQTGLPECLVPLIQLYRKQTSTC
T4 sequence (P51812 422-679 limits assumed): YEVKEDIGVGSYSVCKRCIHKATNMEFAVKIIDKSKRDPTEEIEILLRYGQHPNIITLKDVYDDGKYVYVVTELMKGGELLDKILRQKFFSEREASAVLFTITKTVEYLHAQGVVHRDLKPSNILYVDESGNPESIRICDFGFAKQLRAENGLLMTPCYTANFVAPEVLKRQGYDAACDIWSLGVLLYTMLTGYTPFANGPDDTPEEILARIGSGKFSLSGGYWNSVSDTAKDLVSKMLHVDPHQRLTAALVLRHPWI
Chain of p38-alpha (Q16539 whole entry): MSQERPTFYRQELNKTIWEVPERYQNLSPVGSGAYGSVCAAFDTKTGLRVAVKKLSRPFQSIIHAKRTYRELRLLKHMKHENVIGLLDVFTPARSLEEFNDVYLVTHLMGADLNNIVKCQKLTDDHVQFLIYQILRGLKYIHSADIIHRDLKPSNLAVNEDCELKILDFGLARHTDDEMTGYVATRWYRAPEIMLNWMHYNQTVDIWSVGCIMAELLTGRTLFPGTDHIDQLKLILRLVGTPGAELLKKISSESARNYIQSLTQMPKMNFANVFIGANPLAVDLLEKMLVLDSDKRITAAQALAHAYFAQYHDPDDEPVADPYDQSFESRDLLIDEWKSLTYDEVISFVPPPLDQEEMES
T3 sequence (P51812 68-327 limits assumed): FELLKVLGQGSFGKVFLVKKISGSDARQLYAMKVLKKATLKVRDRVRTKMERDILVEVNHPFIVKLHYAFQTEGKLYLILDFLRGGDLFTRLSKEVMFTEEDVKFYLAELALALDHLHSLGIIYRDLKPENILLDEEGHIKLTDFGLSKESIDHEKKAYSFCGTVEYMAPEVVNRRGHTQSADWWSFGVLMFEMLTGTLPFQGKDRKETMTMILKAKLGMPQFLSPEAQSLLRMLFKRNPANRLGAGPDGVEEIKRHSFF
Chain of PIK3C2B (O00750 whole entry): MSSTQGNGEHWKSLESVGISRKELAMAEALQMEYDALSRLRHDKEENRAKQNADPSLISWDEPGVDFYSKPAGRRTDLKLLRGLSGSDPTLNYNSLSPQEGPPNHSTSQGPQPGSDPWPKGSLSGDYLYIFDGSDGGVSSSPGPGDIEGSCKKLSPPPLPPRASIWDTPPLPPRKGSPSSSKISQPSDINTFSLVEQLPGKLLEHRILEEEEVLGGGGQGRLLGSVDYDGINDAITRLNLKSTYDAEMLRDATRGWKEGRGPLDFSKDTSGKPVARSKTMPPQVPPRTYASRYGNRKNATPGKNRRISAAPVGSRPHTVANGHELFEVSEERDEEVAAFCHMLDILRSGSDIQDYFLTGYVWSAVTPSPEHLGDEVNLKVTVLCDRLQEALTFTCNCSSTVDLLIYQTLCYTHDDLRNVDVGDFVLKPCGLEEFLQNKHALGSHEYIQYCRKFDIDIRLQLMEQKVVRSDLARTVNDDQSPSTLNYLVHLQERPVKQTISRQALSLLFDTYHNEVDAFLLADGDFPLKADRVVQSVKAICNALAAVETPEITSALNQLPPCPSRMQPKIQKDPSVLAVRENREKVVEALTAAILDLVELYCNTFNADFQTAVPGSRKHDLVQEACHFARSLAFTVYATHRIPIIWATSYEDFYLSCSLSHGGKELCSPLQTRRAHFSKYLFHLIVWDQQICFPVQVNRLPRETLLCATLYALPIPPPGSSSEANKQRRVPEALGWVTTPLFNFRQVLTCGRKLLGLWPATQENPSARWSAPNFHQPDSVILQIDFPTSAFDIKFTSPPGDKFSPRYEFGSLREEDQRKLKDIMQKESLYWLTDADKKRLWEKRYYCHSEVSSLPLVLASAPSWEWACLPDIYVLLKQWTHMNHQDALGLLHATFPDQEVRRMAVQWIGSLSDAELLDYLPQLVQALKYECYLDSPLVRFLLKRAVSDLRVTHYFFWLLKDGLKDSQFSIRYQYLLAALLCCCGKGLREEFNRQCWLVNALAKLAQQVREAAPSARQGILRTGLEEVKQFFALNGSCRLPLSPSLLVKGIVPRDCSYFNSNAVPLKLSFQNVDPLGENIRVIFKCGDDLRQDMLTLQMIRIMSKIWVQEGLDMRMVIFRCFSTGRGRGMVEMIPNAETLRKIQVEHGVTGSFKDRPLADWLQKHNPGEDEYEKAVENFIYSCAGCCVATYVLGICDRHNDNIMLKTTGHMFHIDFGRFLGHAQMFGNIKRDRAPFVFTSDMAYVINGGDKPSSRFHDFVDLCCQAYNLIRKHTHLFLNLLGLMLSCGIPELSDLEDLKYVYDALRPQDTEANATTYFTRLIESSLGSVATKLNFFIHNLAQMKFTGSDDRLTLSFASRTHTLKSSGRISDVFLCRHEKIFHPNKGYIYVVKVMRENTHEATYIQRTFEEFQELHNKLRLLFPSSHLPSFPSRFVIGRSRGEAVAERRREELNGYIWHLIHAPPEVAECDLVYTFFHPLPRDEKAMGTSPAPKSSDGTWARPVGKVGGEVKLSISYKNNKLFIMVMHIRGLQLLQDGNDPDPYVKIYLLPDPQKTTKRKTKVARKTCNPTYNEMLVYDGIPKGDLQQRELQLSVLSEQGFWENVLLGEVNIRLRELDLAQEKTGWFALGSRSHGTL

Row | SMILES | remaining binding at 1 µM (PIK3C2B) [%] | remaining binding at 1 µM (PAK6) [%] | remaining binding at 1 µM (MYO3B) [%] | remaining binding at 1 µM (p38-alpha) [%] | remaining binding at 1 µM (MUSK) [%] | remaining binding at 1 µM [1] [%] | remaining binding at 1 µM [2] [%]
1 | CNc1c(-c2ccc(C(=O)N3CCC(N4CCOCC4)CC3)cc2)cnc2[nH]cc(Cl)c12 [Compound 96, (4-(3-chloro-4-(methylamino)-1H-pyrrolo[2,3-b]pyridin-5-yl)phenyl)(4-morpholinopiperidin-1-yl)methanone] | 96 | 100 | 73 | 92 | 100 | 54 | 97
2 | O=C(c1ccc(-c2cnc3[nH]cc(Cl)c3c2NC2CCCC2)cc1)N1CCC(N2CCOCC2)CC1 [Compound 101, (4-(3-chloro-4-(cyclopentylamino)-1H-pyrrolo[2,3-b]pyridin-5-yl)phenyl)(4-morpholinopiperidin-1-yl)methanone] | 96 | 99 | 93 | 100 | 67 | 65 | 83
3 | CNc1c(-c2cnn([C@H]3CCN(C(C)=O)C[C@@H]3F)c2)cnc2[nH]cc(Cl)c12 [Compound 77, 1-((3S,4S)-4-(4-(3-chloro-4-(methylamino)-1H-pyrrolo[2,3-b]pyridin-5-yl)-1H-pyrazol-1-yl)-3-fluoropiperidin-1-yl)ethan-1-one] | 100 | 99 | 96 | 100 | 100 | 54 | 98
